{
  "source": "paper PMC10657792",
  "about": "“Downstream Allosteric Modulation of NMDA Receptors by 3-Benzazepine Derivatives” (Molecular Neurobiology, 2023)",
  "key": {"[1]": {"molecular_target": "GluN1a wt/ GluN2B N192A/F194A (Rattus norvegicus, UniProt P35439+Q00960, F194A/N192A)", "sequence (Q00960 27-1482 N192A/F194A, other chains not shown)": "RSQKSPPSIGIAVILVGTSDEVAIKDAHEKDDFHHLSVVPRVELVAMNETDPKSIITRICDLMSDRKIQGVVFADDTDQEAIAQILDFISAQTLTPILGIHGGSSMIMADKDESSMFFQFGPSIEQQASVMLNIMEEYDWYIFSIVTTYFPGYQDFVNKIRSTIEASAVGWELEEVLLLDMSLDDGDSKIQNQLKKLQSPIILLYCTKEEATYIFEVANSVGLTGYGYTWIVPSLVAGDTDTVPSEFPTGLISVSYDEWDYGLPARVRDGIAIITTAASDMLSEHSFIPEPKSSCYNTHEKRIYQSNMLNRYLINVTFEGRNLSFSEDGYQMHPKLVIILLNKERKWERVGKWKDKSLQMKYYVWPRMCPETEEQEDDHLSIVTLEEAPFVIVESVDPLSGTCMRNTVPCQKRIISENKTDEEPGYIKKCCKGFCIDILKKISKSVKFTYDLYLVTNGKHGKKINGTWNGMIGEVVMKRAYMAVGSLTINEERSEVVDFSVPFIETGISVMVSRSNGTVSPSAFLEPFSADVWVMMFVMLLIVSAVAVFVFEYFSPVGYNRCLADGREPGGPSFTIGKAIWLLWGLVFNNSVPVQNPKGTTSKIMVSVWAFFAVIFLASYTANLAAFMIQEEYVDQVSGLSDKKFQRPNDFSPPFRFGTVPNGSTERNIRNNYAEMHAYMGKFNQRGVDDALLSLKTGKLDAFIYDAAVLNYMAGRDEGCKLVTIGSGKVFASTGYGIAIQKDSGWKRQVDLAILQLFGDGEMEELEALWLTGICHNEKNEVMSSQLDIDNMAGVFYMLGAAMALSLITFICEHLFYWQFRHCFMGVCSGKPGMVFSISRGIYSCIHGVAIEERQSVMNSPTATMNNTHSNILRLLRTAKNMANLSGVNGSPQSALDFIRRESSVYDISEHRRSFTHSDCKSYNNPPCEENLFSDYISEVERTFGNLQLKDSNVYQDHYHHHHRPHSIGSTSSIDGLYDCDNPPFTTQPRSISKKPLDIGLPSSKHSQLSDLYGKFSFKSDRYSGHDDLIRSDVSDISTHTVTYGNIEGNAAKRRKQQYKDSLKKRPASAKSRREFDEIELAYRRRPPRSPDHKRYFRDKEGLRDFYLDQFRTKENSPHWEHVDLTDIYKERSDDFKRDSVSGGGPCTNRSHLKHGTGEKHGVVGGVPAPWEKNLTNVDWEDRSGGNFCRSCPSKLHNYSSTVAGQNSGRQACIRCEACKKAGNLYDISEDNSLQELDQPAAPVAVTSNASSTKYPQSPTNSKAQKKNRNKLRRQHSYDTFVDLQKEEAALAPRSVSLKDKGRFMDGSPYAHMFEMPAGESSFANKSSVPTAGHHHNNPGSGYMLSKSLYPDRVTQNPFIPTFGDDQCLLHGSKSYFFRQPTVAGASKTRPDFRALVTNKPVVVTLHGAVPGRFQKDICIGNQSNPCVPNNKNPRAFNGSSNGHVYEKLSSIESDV", "assay": "TEVC recording in X. laevis oocytes, GluN2B mutant screening", "assay_type": "cell-based"}, "GluN1a wt/ GluN2B N192A": {"molecular_target": "GluN1a wt/ GluN2B N192A (Rattus norvegicus, UniProt P35439+Q00960, N192A)", "sequence (Q00960 27-1482 N192A, other chains not shown)": "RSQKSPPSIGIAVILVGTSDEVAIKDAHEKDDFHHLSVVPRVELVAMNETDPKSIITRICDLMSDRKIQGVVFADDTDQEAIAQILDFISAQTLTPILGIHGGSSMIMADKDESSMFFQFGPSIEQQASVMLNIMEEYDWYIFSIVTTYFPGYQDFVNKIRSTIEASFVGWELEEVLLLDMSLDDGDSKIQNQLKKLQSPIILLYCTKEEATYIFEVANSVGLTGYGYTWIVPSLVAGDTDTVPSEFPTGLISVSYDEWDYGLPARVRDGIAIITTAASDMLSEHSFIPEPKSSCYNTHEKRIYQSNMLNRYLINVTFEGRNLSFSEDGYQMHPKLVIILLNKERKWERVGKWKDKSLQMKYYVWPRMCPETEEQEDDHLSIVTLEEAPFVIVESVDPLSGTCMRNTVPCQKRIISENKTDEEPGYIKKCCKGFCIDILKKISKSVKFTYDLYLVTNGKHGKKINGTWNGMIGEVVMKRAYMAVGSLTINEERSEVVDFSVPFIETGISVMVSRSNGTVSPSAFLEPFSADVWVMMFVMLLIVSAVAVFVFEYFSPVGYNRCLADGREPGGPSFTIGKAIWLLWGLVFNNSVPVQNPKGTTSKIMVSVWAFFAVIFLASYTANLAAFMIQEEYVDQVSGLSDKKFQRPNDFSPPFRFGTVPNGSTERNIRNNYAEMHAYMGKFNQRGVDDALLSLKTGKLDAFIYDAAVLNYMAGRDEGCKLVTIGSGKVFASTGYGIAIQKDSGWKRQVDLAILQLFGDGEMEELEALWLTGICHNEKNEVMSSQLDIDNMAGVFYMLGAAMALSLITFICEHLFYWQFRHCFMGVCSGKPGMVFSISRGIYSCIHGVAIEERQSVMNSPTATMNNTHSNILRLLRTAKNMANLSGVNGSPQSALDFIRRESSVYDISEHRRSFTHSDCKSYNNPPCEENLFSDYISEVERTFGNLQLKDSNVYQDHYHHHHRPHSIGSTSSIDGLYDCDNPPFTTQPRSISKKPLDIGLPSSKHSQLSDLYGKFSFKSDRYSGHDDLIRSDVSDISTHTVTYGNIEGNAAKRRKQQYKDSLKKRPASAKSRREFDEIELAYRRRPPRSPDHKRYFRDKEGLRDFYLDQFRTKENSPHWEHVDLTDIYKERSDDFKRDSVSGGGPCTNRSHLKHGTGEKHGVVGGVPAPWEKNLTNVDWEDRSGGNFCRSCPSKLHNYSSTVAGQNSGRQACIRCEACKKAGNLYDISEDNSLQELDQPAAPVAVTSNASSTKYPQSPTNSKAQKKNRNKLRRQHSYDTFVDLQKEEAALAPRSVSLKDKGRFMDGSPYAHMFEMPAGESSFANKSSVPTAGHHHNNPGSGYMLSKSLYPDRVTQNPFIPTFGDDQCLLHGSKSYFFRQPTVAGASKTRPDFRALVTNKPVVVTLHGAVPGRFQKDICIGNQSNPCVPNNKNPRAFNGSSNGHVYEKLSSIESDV", "assay": "TEVC recording in X. laevis oocytes, GluN2B mutant screening", "assay_type": "cell-based", "details": "for inhibition (%): GluN1-1a GluN2B N192A, single oocytes"}},
  "note": "“And” between values parts separate entries of the source, which are not always exact repeats. Equal values may be shown once.",
  "data": [
    {"smiles": "Oc1ccc2c(c1)CCN(CCCCc1ccccc1F)C[C@@H]2O", "note": "[(R)-OF-NB1]", "values": [
      {"measurement": "inhibition at 1 µM", "setting": "[1]; GluN1-1a GluN2B N192A/F194A, compound concentration 1 μM, single oocytes", "value": 30.7, "unit": "%"},
      {"measurement": "inhibition (%)", "setting": "[1]; GluN1-1a GluN2B N192A/F194A, compound concentration 1 μM, single oocytes, 1 µM", "value": "27.3896% and 29.45% and 20.653%"},
      {"measurement": "inhibition (%)", "setting": "[1]; GluN1-1a GluN2B N192A/F194A, compound concentration 10 μM, single oocytes, 10 µM", "value": "48.3548% and 37.2275% and 43.7739% and 28.318%"},
      {"measurement": "inhibition at 30 µM", "setting": "[1]; GluN1-1a GluN2B N192A/F194A, compound concentration 30 μM, single oocytes", "value": 50.8, "unit": "%"},
      {"measurement": "inhibition (%)", "setting": "[1]; GluN1-1a GluN2B N192A/F194A, compound concentration 30 μM, single oocytes, 30 µM", "value": "42.6495% and 45.6455% and 35.2023%"},
      {"measurement": "Hill coefficient", "setting": "[1]; fitted curve", "value": 0.3},
      {"measurement": "inhibition (%)", "setting": "GluN1a wt/ GluN2B N192A; compound concentration 1 μM, 1 µM", "value": "66.1572% and 79.6651% and 73.3591% and 75.5102% and 40.4665% and 73.3363% and 63.7681%"},
      {"measurement": "inhibition (%)", "setting": "GluN1a wt/ GluN2B N192A; compound concentration 10 μM, 10 µM", "value": "77.2198% and 89.4737% and 79.5367% and 82.6531% and 48.1744% and 82.1493% and 73.43%"},
      {"measurement": "inhibition (%)", "setting": "GluN1a wt/ GluN2B N192A; compound concentration 30 μM, 30 µM", "value": "83.1878% and 94.0191% and 84.556% and 89.7959% and 61.6633% and 86.6457% and 82.1256%"},
      {"measurement": "IC50", "setting": "GluN1a wt/ GluN2B N192A; agonists 10 µM glycine + 10 µM (S)-glutamate, fitted curve", "value": 282, "unit": "nM"},
      {"measurement": "Hill coefficient", "setting": "GluN1a wt/ GluN2B N192A; fitted curve", "value": 0.4}
    ]}
  ]
}
